Measured values published in patent publication US8461329B2, “Isoquinoline derivative” (Taisho Pharmaceutical Co., Ltd., priority 2008, dated 2013).
Read-outs that look alike come from different tables or passages of the source.

Legend:
CRTH2 (KB8 cells) = target: T1, CRTH2 (KB8 cells) (Homo sapiens, UniProt Q9Y5Y4); assay: CRTH2 antagonist test (PGD2-induced intracellular calcium ion concentration increase in KB8 cells); format: cell-based
T1 construct: host or cells: KB8 cells (human CRTH2 expression cell)
T1 sequence (Q9Y5Y4 1-395): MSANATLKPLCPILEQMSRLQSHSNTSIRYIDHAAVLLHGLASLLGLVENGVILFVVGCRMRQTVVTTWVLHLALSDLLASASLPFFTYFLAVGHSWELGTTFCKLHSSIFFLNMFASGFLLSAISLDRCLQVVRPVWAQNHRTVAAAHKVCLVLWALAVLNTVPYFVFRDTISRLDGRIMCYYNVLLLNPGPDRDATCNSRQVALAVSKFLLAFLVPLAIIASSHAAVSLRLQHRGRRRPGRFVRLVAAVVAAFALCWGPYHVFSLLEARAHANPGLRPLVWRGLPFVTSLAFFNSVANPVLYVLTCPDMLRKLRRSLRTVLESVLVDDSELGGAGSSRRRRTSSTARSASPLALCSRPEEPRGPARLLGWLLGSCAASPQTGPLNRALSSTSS
In short: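 Fluo-4-AM-loaded KB8 cells in HBSS with 10 mM HEPES and 1 mM CaCl2 received compound plus PGD2 (final 100 nM); peak fluorescence followed over time. Inhibition was computed against no-compound and unlabelled-PGD2 controls, and IC50 obtained from a dose-response curve.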

[1] = target: T2, human CRTH2 expression cell KB8 (Homo sapiens, UniProt Q9Y5Y4); assay: CRTH2 binding test (3H-PGD2 binding to KB8 cells); conditions: 3H-PGD2 5 nM, 4° C., one hour
T2 construct: host or cells: KB8 cells (human CRTH2 expression cell)
T2 sequence (Q9Y5Y4 1-395): T1 sequence (Q9Y5Y4 1-395)
Experimental: CRTH2 binding inhibitory activity of the compound of the present invention was considered by using a binding test between human CRTH2 expression cell KB8 (BML, INC.) and ^3H-labeled prostaglandin D2 (hereinafter, abbreviated as ^3H-PGD2, manufactured by GE Healthcare).
KB8 was suspended in a reaction buffer solution (Hank's balanced salt solution (Invitrogen) containing 10 mM HEPES (Invitrogen)), which was dispensed in a 96 well plate (Coaster) so that 2×10^5 cells/well are placed. Furthermore, the compound of the present invention and ^3H-PGD2 (final concentration: 5 nM) were added, stirred, and incubated at 4° C.
One hour later, cells were collected on GF/C Filter Plate (PerkinElmer) that had been pre-coated with 0.5% polyethyleneimine solution (SIGMA) by using a Cell Harvester (Packard BioScience), and the radioactivity of the cells was measured by using Top count NXT (PerkinElmer) (a value measured herein was represented by a measurement value “a”). The same procedure was carried out in the absence of the compound, and a measurement value “b” was obtained; and the same procedure was carried out in the absence of the compound and in the presence of non-labeled PGD2 (final concentration: 50 μM), a measurement value “c” was obtained.
The binding inhibition rate of the compound was calculated by the following calculation formula: Bonding inhibitory rate(%)=[1−(a−c)/(b−c)]×100
That is to say, by using binding inhibition rates of compounds to be tested having various concentrations, the IC50 value was calculated according to a dose-dependent inhibition curve analyzed by using XLfit (IDBS) as a data analysis software, and the calculated value was defined as an indicator of the inhibitory activity. In Table 9, A denotes an inhibitory activity showing the IC50 value of less than 50 nM; B denotes an inhibitory activity showing the IC50 value of 50 nM or greater and less than 500 nM; C denotes an inhibitory activity showing the IC50 value of 500 nM or greater and less than 1000 nM; and D denotes an inhibitory activity showing the IC50 value of 1000 nM or greater.

[2] = PGD2 final concentration 100 nM, Fluo-4-AM fluorescence, read-out: antagonist activity (IC50 value, inhibition of calcium ion concentration increase)
[3] = IC50 class, read-out: binding inhibitory activity

IC50 (CRTH2 (KB8 cells); [2]) [nM]	IC50 [1, 3] [nM]	IC50 ([1]; read-out: CRTH2 binding inhibitory activity IC50 value) [nM]	IC50 (CRTH2 (KB8 cells); PGD2 100 nM, Fluo-4 calcium fluorescence, read-out: CRTH2 antagonist activity IC50 value) [nM]	SMILES
< 50	< 50			O=C(O)Cc1cnc(C(=O)c2ccc(C(=O)NCCc3ccc(Cl)cc3)cc2)c2ccccc12 [Example 135, {1-[(4-{[2-(4-chlorophenyl)ethyl]carbamoyl}phenyl)carbonyl]isoquinolin-4-yl}acetic acid]
< 50	< 50			O=C(O)Cc1cnc(C(=O)c2ccc(C(=O)Nc3ccc(Cl)c(Cl)c3)cc2)c2ccccc12 [Example 136]
< 50	< 50			O=C(O)Cc1cnc(C(=O)c2ccc(C(=O)NCCc3ccc(Cl)c(Cl)c3)cc2)c2ccccc12 [Example 137]
< 50	< 50			COc1ccc(CCNC(=O)c2ccc(C(=O)c3ncc(CC(=O)O)c4ccccc34)cc2)cc1 [Example 138]
< 50	< 50			O=C(O)Cc1cnc(C(=O)c2ccc(C(=O)NCCc3cccc(Cl)c3)cc2)c2ccccc12 [Example 139]
50 to 500	< 50			O=C(O)Cc1cnc(C(=O)c2ccc(OCCc3ccc(Cl)cc3)cc2)c2ccccc12 [Example 141, [1-({4-[2-(4-chlorophenyl)ethoxy]phenyl}carbonyl)isoquinolin-4-yl]acetic acid]
50 to 500	< 50			O=C(O)Cc1cnc(C(=O)c2ccc(OCCCc3ccc(Cl)cc3)cc2)c2ccccc12 [Example 142]
50 to 500	< 50	9.9		O=C(O)Cc1cnc(C(=O)c2ccc(OCCOc3ccc(Cl)cc3)cc2)c2ccccc12 [Example 143]
< 50	< 50			O=C(O)Cc1cnc(Cc2ccc(NC(=O)c3ccc(Cl)c(Cl)c3)cc2)c2ccccc12 [Example 148, [1-(4-{[(3,4-dichlorophenyl)carbonyl]amino}benzyl)isoquinolin-4-yl]acetic acid]
< 50	< 50		12	O=C(O)Cc1cnc(Cc2ccc(C(=O)NCCc3ccc(Cl)cc3)cc2)c2ccccc12 [Example 153, [1-(4-{[2-(4-chlorophenyl)ethyl]carbamoyl}benzyl)isoquinolin-4-yl]acetic acid]
